Source: patent publication US20150164064A1, “METHODS, COMPOSITIONS AND DEVICES FOR INDUCING STASIS IN CELLS, TISSUES, ORGANS, AND ORGANISMS” (Fred Hutchinson Cancer Research Center, priority 2003, published 2015)
“Also recorded” adds a separate entry of the source. Like-named read-outs stand apart in the source and are kept apart here.

Assays:
human keratinocytes = test: Preservation of human skin in carbon monoxide; keratinocyte growth and colony formation; type: cell-based
Protocol: Three human foreskins were obtained for this purpose. The foreskin tissue was preserved in keratinocyte growth medium (KGM) containing insulin, EGF (0.1 ng/ml), hydrocortisone ([…]) and bovine pituitary extract (approx. 50 micrograms/ml of protein). Foreskins were rinsed in PBS, and excess fatty tissue was removed. Each foreskin sample was divided into 2 equal pieces. Each piece was placed into a separate container containing a solution of PBS with 24 mg/ml of Dispase II (from Bacillus Polmyxa EC 3.4.24.4:Roche Diagnostics Corp., Indianapolis, Ind.). One container (containing a foreskin piece in PBS with Dispase II) was kept in a humid chamber in a fume hood. The other container (with the other half of the foreskin in PBS with Dispase II) was placed in the same fume hood in an environmental chamber perfused with humidified 100% CO. Both samples were maintained at room temperature for 24 hrs. Methods used to establish defined atmospheric conditions were identical to those used in Example 1. […]
Cells were inspected visually using an inverted phase contrast microscope. […] Quantitation of the number of viable keratinocytes as judged by colony formation was quantified for two of the three foreskins.

hif-1(ia04) embryos = test: Viability and suspended animation of nematodes in carbon monoxide based atmospheres (hif-1 mutant); type: in vivo, C. elegans
Source text: Viability of nematodes in carbon monoxide based atmospheres. 30-60 embryos were harvested from continuously maintained Bristol N2 and […] strains as described above. Environmental chambers were continuously perfused at room temperature with pure CO (grade CP) or 500 ppm O2/CO at 70 cc/min for 24 hrs. To achieve 2500 ppm O2/CO or 2500 ppm O2/N2, 5000 ppm O2/N2 was mixed at a 1:1 ratio with either pure CO or pure N2 using two mass flow controllers (Sierra Instruments 810) to precisely monitor flow. Each gas was delivered into a 3-way valve (Cole-Parmer #A-30600-23) at 50 cc/min and the resulting mixture was then passed through a gas washing bottle and into an environmental chamber throughout the 24 hour exposure. All gases were supplied by Byrne Gas (Seattle, Wash.). The 500 ppm O2/CO mixture was certified to ±2% of the oxygen content and contained […] to ensure a consistent O2/CO ratio throughout the use of the tank.
Cell biological analysis. To determine the extent of developmental progression in nitrogen-based atmospheres (Table 2), 2-cell embryos were exposed to various degrees of hypoxia as described above and were either immediately photographed, or photographed following a […] recovery period in a humid chamber. […]

humans [1] = conditions: cited from earlier work
[2] = test system: wild-type C. elegans embryos (Bristol N2); test: Viability and suspended animation of nematodes in carbon monoxide based atmospheres (wild-type); type: in vivo
Source text: To achieve specific atmospheric conditions the following apparatus was used: a glass syringe barrel having a tip with a locking device such as a LUER-LOK with the large opening of the barrel sealed with a custom-machined steel and rubber fitting to make an airtight seal was locked to via locking device to the inlet port of an environmental chamber having an inlet and an outlet port each fitted with a locking devices such as a LUER-LOK fitting. A defined gas was humidified and provided to the environmental chamber by first venting the gas from a compressed tank (Byrne Specialty Gas, Seattle, Wash.) through a gas washing bottle (500 ml Kimex) filled with double distilled water. The gas washing bottle was connected to the environmental chamber past a gas-flow meter. A gas flow meter was used to provide a regulated 70 cc/min flow through the environmental chamber throughout the 24 hr incubation.
To test whether induced, reversible stasis could be achieved in C. elegans nematodes, 2-cell C. elegans embryos, L3 larvae or adult nematodes were collected and exposed to either an environment of effectively 100% CO, an environment of 100% N2, an environment comprising 500 ppm oxygen balanced with carbon monoxide, or to environments comprising 100, 500 or 1000 ppm oxygen balanced with nitrogen at room temperature. Nematodes were visualized using differential interference contrast microscopy (also known as Nomarski optics), images were collected and analyzed using NIH image and Adobe Photoshop 5.5. Embryos are approximately 50 μm in length.
Enviromental chambers and apparati. Oxygen deprivation experiments were carried out using a custom atmospheric chamber designed by W. Van Voorhies (Van Voorhies et al., 2000). The chamber is a 30 mL glass syringe (Fisher #14-825-10B) fitted with a custom steel stopper that is lined with two viton o-rings to ensure a tight seal. The stopper is bored through and has a steel lure lock on the exterior face so that a hose carrying compressed gas can be attached. A defined gas mixture is delivered to the chamber at a constant pressure and flow rate from compressed tanks by passing first through a rotometer (Aalborg, flow-tube number 032-41ST) or mass flow controller (Sierra Instruments #810) to monitor flow rate and then through a 500 ml gas washing bottle (Fisher #K28220-5001) containing 250 ml water to hydrate the gas. ¼″ OD nylon (Cole-Parmer #P-06489-06) or FEP (Cole-Parmer #A-06450-05) tubing was used and connections between tubing and the regulators and between the tubing and the rotometers were made with brass John-Guest-type fittings (Byrne Gas). All other connections were made with either microflow quick-connect fittings (Cole-Parmer #A-06363-57, #A-06363-52) or standard lure fittings (Cole-Parmer #A-06359-37, #A-06359-17).
Viability of nematodes in hypoxia. […] Log-phase, adult C. elegans were picked into a drop of sterile water containing 100 μg/ml ampicillin, 15 μg/ml tetracycline and 200 μg/ml streptomycin on a glass plate. Adults were chopped with a razor blade and 2-cell embryos were picked using a mouth pipet. 30-60 2-cell embryos were transferred to a small glass boat (custom made to fit atmospheric chambers, Avalon Glass Works, Seattle Wash.) filled with 3 ml of 1% agarose in M9. […] Embryos were scored for hatching 24 hours after exposure and hatched L1's were transferred to the surface of the NGM plate and followed to adulthood. […]

mice [3] = conditions: 80 ppm, cited from earlier work
mice [4] = test: Core body temperature, heart rate and movement of mice by telemetry in regulated H2S atmosphere; type: in vivo, mouse; conditions: 80 ppm
Source text: Implantation of telemetry devices.
Exposure of Mice to Regulated Atmosphere.
Regulation of Ambient Temperature. […] Mice were exposed to regulated atmosphere as described above.

humans [5] = conditions: 500 ppm; cited from earlier work
rats = conditions: cited from earlier work
mice [6] = test system: mice

[C-]#[O+] [CO, carbon monoxide]
keratinocyte growth (visual inspection) (human keratinocytes; all three populations, 100% CO 24 hr): significant growth
cell survival in CO relative to room air (human keratinocytes; human skin, 100% CO, after 24 hrs): 100 fold
viability (survival) to adulthood (hif-1(ia04) embryos; 0.25 kPa O2/CO, 24 hrs, hif-1(ia04) embryos): 84.0%
suspended animation (hif-1(ia04) embryos; 0.25 kPa O2 balanced with carbon monoxide, hif-1(ia04)): entered into suspended animation
symptoms in humans (humans [1]; 50 ppm): no symptoms
symptoms in humans (humans [1]; 200 ppm, within two-three hours): slight headache
symptoms in humans (humans [1]; 400 ppm, within one to two hours): frontal headache
symptoms in humans (humans [1]; 800 ppm, within 45 minutes): dizziness, nausea, and/or convulsions
symptoms in humans (humans [1]; 800 ppm, within two hours): insensible
lethality (humans [1]; around 1000 ppm, exposure more than around 1-2 minutes): can expire
suspended animation ([2]; 0.25 kPa O2 balanced with carbon monoxide, wild-type): entered into suspended animation
suspended animation ([2]; 100% CO (101 kPa CO), 24 hrs): entered into suspended animation
suspended animation ([2]; 100% CO (101 kPa CO), 24 hrs, listed as carbon monoxide): induced reversible suspended animation
lethality to nematodes ([2]; 100% CO, 24 hr, room temperature): not lethal
suspended animation and survival ([2]; 500 ppm oxygen (0.05 kPa O2) balanced with carbon monoxide, 24 hrs): entered into suspended animation and survived; also recorded: arrested embryogenesis

S [H2S, hydrogen sulfide]
tolerability (mice [3]; exposures up to ten weeks): innocuous
toxicology, gross and histopathological examination (mice [3]; mice, 6 hrs per day, 5 days per week, 90 days): no observed adverse effect
core body temperature repeatedly reached on demand (mice [4]): 13-15 °C
acute effect of extreme levels (humans [5]): sudden collapse and unconsciousness
perinatal exposure effect on cerebellar Purkinje cells (rats; 20 or 50 ppm, 7 hours per day, gestation through post-natal day 21): longer dendritic branches with reduced aborization of cerebellar Purkinje cells
perinatal study, neuropathology and behavior of rat pups (rats; 80 ppm): no neuropathological effects or altered motor activity, passive avoidance, or acoustic startle response
behavioral toxicity, avoidance responses (rats; moderate levels, immediately after end of exposure): inhibits discriminated avoidance responses
behavioral toxicity, maze learning (rats; moderate levels): interferes with the ability of rats to learn a baited radial arm maze task
toxicology, gross and histopathological examination (rats; rats, 80 ppm, 6 hrs per day, 5 days per week, 90 days): no observed adverse effect
behavior compared to untreated animals (mice [6]; after 80 ppm, cabinet 10.5°C): no apparent change in the behavior
behavior tests (SHIRPA protocol) before and after exposure (mice [6]; after gas exposure): no detectable behavioral differences
behavior of the animals (mice [6]; four mice maintained for 4 weeks after 80 ppm, 6 hr, 15°C): no apparent change in the behavior
